Values of other authors in US20230381356A1 (priority 2021, published 2023).

Key:
[1] = test system: SARS-CoV-2; details: GITC alone, even in high concentrations
[2] = test system: Pixuna virus; details: GITC alone at or near saturation (~3.5M)
[3] = test system: Ebola Virus; details: saturated GITC solution ~3.5M alone
[4] = test system: HIV
[5] = test system: Bovine Viral Diarrheal Virus
[6] = test system: Pseudorabies Virus
[7] = test system: Virus; details: in <1 minute, final concentration of 1% (v/v)
[8] = test system: Xenotropic murine leukemia virus

Row | Molecule | inactivation of SARS-CoV-2 [1] | inactivation of Pixuna virus [2] | inactivation of Ebola Virus [3] | inactivation of HIV [4] | inactivation of Bovine Viral Diarrheal Virus [5] | inactivation of Pseudorabies Virus [6] | log reduction [7] | inactivation of Xenotropic murine leukemia virus [8]
1 | N#CS.N=C(N)N [GITC, Guanidine isothiocyanate] | 50-75% | did not effectively inactivate | does not inactivate |  |  |  |  | 
2 | Triton X-100 |  |  |  | inactivate | inactivate | inactivate | 4 log | inactivate
